From US7105531B2, “Tricyclic protein kinase inhibitors” (WYETH, priority 1999, dated 2006)

Experiments:
[1] = target: T1, recombinant human MEK 1 (MAPKK) and recombinant human ERK2 (MAPK) (Homo sapiens, UniProt P28482+Q02750); test: Mitogen Activated Protein Kinase (MAPK) coupled Mek-Erk test procedure; type: biochemical
T1 construct: GST
Protocol: To evaluate inhibitors of the MAP (mitogen activated protein) kinase a two component coupled standard pharmacological test procedure, which measures phosphorylation of a serine/threonine residue in an appropriate sequence in the substrate in the presence and absence of a putative inhibitor, is used. Recombinant human MEK 1 (MAPKK) is first used to activate recombinant human ERK2 (MAPK) and the activated MAPK (ERK) is incubated with substrate (myelin basic protein peptide (MBPP) or Myc peptide) in the presence of ATP, Mg^+2 and radiolabeled ^33P ATP. The phosphorylated peptide is captured on a P 81 phosphocellulose filter (paper filter or embedded in microtiter plate) washed and counted by scintillation methods.
The peptide substrates used in the assay are MBPP, peptide substrate ([…]), or synthetic Myc substrate, ([…].5 TFA). The recombinant enzymes used are prepared as GST fusion proteins of human ERK 2 and human MEK 1. Inhibitor samples are prepared as 10× stocks in 10% DMSO and an appropriate aliquot is used to deliver either 10 ug/ml for a single point screening dose or 100 to 0.0001 uM final concentration for a dose response curve. Final DMSO concentrations are less than or equal to 1%.
The reaction is run as follows in 50 mM Tris kinase buffer, pH 7.4 in a reaction volume of 50 ul. The appropriate volume of kinase buffer and inhibitor sample is added to the tube. Appropriate dilution of enzyme is delivered to give 2–5 ug recombinant MAPK (Erk) per tube. The inhibitor is incubated with MAPK (Erk) for 30 min at 0 deg. C. Recombinant Mek (MAPKK) (0.5–2.5 ug) or fully activated Mek (0.05–0.1 units) is added to activate the Erk and incubated for 30 min at 30° C. Then substrate and γ^33P ATP are added to give a final concentration of 0.5–1 mM MBPP or 250–500 uM Myc; 0.2–0.5 uCi gamma P 33 ATP/tube; 50 μM ATP final concentration. Samples are incubated at 30° C. for 30 minutes and the reaction is stopped by adding 25 μl of ice cold 10% trichloroacetic acid (TCA). After samples are chilled on ice for 30 min. 20 μl of sample is transferred onto P 81 phosphocellulose filter. Filter papers are washed 2 times with a large volume of 1% acetic acid, then 2 times with water. The filters are briefly air dried before addition of scintillant and samples are counted in the appropriate scintillation counter set up for reading ^33P isotope. Samples include a positive control (activated enzyme plus substrate); a no enzyme control; a no substrate control; samples with different concentrations of putative inhibitor, and samples with reference inhibitors (other active compounds or non-specific inhibitors such as staurosporine or K252 B).
The raw data is captured as cpm. Sample replicates are averaged and corrected for background count. Mean cpm data is tabulated by group and % inhibition by a test compound is calculated as (corrected cpm control−corrected. cpm sample/control)×100=% inhibition).

[2] = target: T2, Rat2 fibroblasts transformed with v-Src/Hu c-Src fusion gene (Homo sapiens, UniProt P12931, cells depend on it, form not given); test: Anchorage independent Src-transformed fibroblast proliferation test procedure; type: cell-based, rat; details: for Src TF prolif % Inh: @ dose 10 μM
T2 construct: fused on or other part: The v-Src frame of Rous sarcoma virus: everything outside the catalytic domain, namely the N-terminal unique/SH3/SH2 part; Candidates are Prague C (P00526), then Schmidt-Ruppin A (P00524)
From the text: Anchorage Independent Src-transformed Fibroblast Proliferation Test Procedure: Rat2 fibroblasts stably transformed with a plasmid containing CMV promotor controlled v-Src/Hu c-Src fusion gene in which the catalytic domain of human c-Src is inserted in place of the v-Src catalytic domain in the v-Src gene are used for the measurement of src dependent suspension growth.

HT-29 cells = test: Cell proliferation test procedure, HT-29 cells; type: cell-based; details: Homo sapiens, read-out: HT-29 prolif IC50
Protocol: HT-29 cells: Compound effectiveness at inhibiting cell proliferation on plastic is performed in a 96-well format by plating 5000 cells per well in appropriate medium on day one, followed by compound addition on day 2 in serial two-fold dilutions. On day five, compound is washed away and medium containing MTS reagent (Promega) is added. Relative cell number is determined by reading the absorbance at 490 nm of a dye produced by an NAD-dependent cellular enzymatic reaction.

p60^c-src (Src) = target: T3, p60^c-src (Src) (Homo sapiens, UniProt P12931); test: Src kinase test procedure (Elisa format); type: biochemical
T3 construct: purchased Upstate Biotechnologies
Protocol: Inhibitors of p60^c-src (partially purified preparation purchased from Upstate Biotechnologies) tyrosine kinase activity are analyzed in an Elisa format. […] HRP-conjugated anti-phosphotyrosine is used to detect phosphorylated peptide via a color reaction. Conditions recommended by the manufacturer are employed.
The reaction mixture with the phosphorylated peptide is then transferred to a streptavidin-coated microtiter plate (provided in the kit) and allowed to bind for 20 minutes. Unbound peptide and reaction mixture is decanted and the plate is washed with PBS six times. Horseradish peroxidase-conjugated phosphotyrosine antibody supplied in the kit is incubated with the plate for one hour, then decanted. The plate is again washed with PBS six times.

T2 sequence (P12931 whole entry, change not shown, the tested form may be a part): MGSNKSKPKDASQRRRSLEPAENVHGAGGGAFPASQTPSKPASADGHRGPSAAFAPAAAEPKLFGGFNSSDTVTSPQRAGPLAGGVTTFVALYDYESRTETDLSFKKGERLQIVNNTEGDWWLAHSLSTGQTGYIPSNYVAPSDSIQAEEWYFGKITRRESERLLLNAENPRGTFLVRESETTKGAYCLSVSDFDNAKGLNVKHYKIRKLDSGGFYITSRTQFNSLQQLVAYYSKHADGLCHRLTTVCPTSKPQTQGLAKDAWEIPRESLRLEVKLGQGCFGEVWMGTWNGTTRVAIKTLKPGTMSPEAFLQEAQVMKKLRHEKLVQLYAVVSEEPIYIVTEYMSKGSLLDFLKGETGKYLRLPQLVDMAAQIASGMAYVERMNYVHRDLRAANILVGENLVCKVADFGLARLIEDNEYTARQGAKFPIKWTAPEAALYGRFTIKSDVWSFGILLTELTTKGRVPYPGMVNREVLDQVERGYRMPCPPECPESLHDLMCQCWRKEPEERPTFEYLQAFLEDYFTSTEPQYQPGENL
T3 sequence (P12931 whole entry, species assumed): as the sequence (P12931 whole entry, change not shown, the tested form may be a part) above

| Compound | Mek-Erk IC50 [1] | Src TF prolif % Inh [2] | melting point | IC50 (HT-29 cells) | also measured |
| --- | --- | --- | --- | --- | --- |
| COc1cc(Nc2c(C#N)cnc3c2C=C2N=CN=C2C3)c(Br)cc1Cl [Example 39, 8-(2-Bromo-4-chloro-5-methoxyphenylamino)imidazo[4,5-g]quinoline-7-carbonitrile] | 1300 nM | 25% | 257 °C (dec.) |  |  |
| COc1cc(Nc2c(C#N)cnc3cc4cc(OCCN5CCN(C)CC5)c(OC)cc4cc23)c(C)cc1Cl [Example 133, 4-(4-chloro-5-methoxy-2-methylanilino)-7-methoxy-8-[2-(4-methyl 1-piperazinyl)ethoxy]benzo[g]quinoline-3-carbonitrile] |  |  |  | 8600 nM |  |
| COc1cc(Nc2c(C#N)cnc3cc4cc(OCCN5CCOCC5)c(OC)cc4cc23)c(Cl)cc1C [Example 216, 4-(2-Chloro-5-methoxy-4-methylphenylamino)-7-methoxy-8-(2-morpholin-4-yl-ethoxy)benzo[g]quinoline-3-carbonitrile] |  |  | 220 to 222 °C | 9950 nM |  |
| COc1cc(Nc2c(C#N)cnc3cc4cc(OCCN5CCN(C)CC5)c(OC)cc4cc23)c(Cl)cc1C [Example 203] |  |  |  |  | IC50 (p60^c-src (Src)): 4.2 nM; GI50 ([2]; rat2 fibroblasts transformed with v-src/hu c-src fusion gene, read-out: Src TF prolif IC50): 71 nM |
| COc1ccc(Cl)c(Nc2c(C#N)cnc3c2C=C2N=CN=C2C3)c1 [Example 40, 8-(2-Chloro-5-methoxy-phenylamino)imidazo[4,5-g]quinoline-7-carbonitrile] | 500 nM | 0% | 296 to 298 °C |  |  |
| COc1cc(Nc2c(C#N)cnc3c2sc2ccc([N+](=O)[O-])cc23)c(C)cc1Cl [Example 75] |  |  |  |  | Src % Inh (p60^c-src (Src); dose 10 μM): 0% |
